Measurements from patent publication US12466820B2, “Amino quinazoline derivatives as P2X3 inhibitors” (CHIESI FARMACEUTICI S.p.A., priority 2019, dated 2025).
Structures can show the parent of a compound that is named as a salt.

biological target: T1, h P2X3 (Homo sapiens, UniProt P56373); assay: In vitro electrophysiology assay for P2X3 (automated whole-cell patch clamp, Sophion Qube); format: cell-based; settings: Table 6; range of activity; inhibition of P2X3 current, agonist α,β-MeATP (800 nM)
T1 sequence (P56373 1-397): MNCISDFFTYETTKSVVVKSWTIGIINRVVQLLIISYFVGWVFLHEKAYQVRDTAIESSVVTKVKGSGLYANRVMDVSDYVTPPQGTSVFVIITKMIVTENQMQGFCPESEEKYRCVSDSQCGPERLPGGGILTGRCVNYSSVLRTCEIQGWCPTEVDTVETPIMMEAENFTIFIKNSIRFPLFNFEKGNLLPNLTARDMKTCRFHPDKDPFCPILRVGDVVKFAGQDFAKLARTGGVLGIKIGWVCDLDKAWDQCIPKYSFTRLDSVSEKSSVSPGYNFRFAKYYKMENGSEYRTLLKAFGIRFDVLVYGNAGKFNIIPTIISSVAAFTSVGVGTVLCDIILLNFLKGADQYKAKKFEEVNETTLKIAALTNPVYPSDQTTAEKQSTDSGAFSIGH
Description: Pharmacological Activity of the Compounds of the Invention In Vitro Electrophysiology Assay for P2X3
Cells expressing P2X3 receptors were grown according to standard practice and maintained at 37° C. in a 5% humidified CO2 atmosphere. The cells were seeded into T175 flask 2 days prior to the day of the assay and dissociated from the flasks using TrypLE when grown to confluence of 80-90%. The dissociated cells were resuspended in serum free media at a cell density of 3×10^6 cells/ml and loaded onto the Sophion Qube automated patch-clamp system. The extracellular assay buffer contained 145 mM NaCl, 4 mM KCl, 2 mM CaCl2), 1 mM MgCl2, 10 mM HEPES, and 10 mM glucose at pH 7.4. The intracellular assay solution contained 140 mM CsF, 10 mM NaCl, 10 mM EGTA, 10 mM HEPES at pH 7.2. Agonist stock solutions were prepared in H2O and diluted in bath solution prior to use. All antagonists were prepared as 10 mM stock solutions in DMSO and diluted in bath solution prior to use. All experiments were performed under the whole-cell patch clamp configuration at room temperature with 384 individual cells being voltage clamped at −60 mV simultaneously on the Sophion Qube instrument. Two baseline responses were established with the application of α,β-MeATP (800 nM), with the subsequent agonist applications being washed out using extracellular assay buffer containing 0.5 U/ml apyrase. Following the second agonist application, antagonist was incubated in the absence of α,β-MeATP for 10 minutes. After antagonist preincubation, 800 nM α,β-MeATP and antagonist were co-administered to determine the inhibitory effect of the antagonist. One concentration of an antagonist was assessed against a single cell, with different concentrations of the antagonist applied to other cells on the 384 recording substrate. The control P2X3 current amplitude was taken from the peak current amplitude from the second agonist response prior to preincubation with antagonist. The peak P2X3 current amplitude in the presence of antagonist was used to calculate the inhibitory effect at each concentration of the antagonist according to the following equation: […]
Concentration-response curves were constructed from ten different concentrations with each concentration of antagonist tested on at least two individual cells. The concentration of the antagonist to inhibit P2X3 current by 50% (IC50) was determined by fitting the data with the following equation: […]
Where ‘a’ is minimum response, ‘b’ is maximum response, ‘c’ is IC50 and ‘d’ is Hill slope.
The results for individual compounds are provided below in Table 6 and are expressed as range of activity.
The activity of the comparative examples A and B have been tested in the in vitro Electrophysiology Assay for P2X3 as described above.

Q: Which IC50 does the source give for COc1cc(-c2ncc(F)cn2)cc2c(N[C@H](C)c3ccc(C)nn3)ncnc12 [Example 4] here?
A: 316 to 3160 nM

Q: Which IC50 does the source give for COc1cc(-c2ncc(C)cn2)cc2c(NC(C)c3nc(-c4ccncc4)no3)ncnc12 (stereo not shown) [Example 6, 8-methoxy-6-(5-methylpyrimidin-2-yl)-N-(1-(3-(pyridin-4-yl)-1,2,4-oxadiazol-5-yl)ethyl)quinazolin-4-amine] here?
A: 316 to 3160 nM

Q: CNS(=O)(=O)c1cc(-c2ccc(F)cc2)cc2c(N[C@H](C)c3nnc(C)s3)ncnc12 [Example 21] was tested. Which IC50 did it give?
A: 316 to 3160 nM

Q: Which IC50 does the source give for C[C@@H](Nc1ncnc2c(-c3cncnc3)cc(-c3ccc(F)cc3)cc12)c1cnc(C(F)(F)F)nc1 [Example 25, (R)-6-(4-fluorophenyl)-8-(pyrimidin-5-yl)-N-(1-(2-(trifluoromethyl)pyrimidin-5-yl)ethyl)quinazolin-4-amine] here?
A: < 316 nM

Q: How did the IC50 turn out when C[C@@H](Nc1ncnc2c(C3CCOCC3)cc(-c3ccc(F)cc3)cc12)c1cnc(C(F)(F)F)nc1 [Example 26, (R)-6-(4-fluorophenyl)-8-(tetrahydro-2H-pyran-4-yl)-N-(1-(2-(trifluoromethyl)pyrimidin-5-yl)ethyl)quinazolin-4-amine] was run?
A: 316 to 3160 nM

Q: How did the IC50 turn out when C[C@@H](Nc1ncnc2c(C3=CCNCC3)cc(-c3ccc(F)cc3)cc12)c1cnc(C(F)(F)F)nc1 [Example 27, (R)-6-(4-fluorophenyl)-8-(1,2,3,6-tetrahydropyridin-4-yl)-N-(1-(2-(trifluoro-methyl)pyrimidin-5-yl)ethyl)quinazolin-4-amine] was run?
A: < 316 nM

Q: Which IC50 does the source give for Cc1cnc(-c2cc(OC3CCOCC3)c3ncnc(NCc4ccc(C)nn4)c3c2)nc1 [Example 31, N-[(6-methylpyridazin-3-yl)methyl]-6-(5-methylpyrimidin-2-yl)-8-tetrahydropyran-4-yloxy-quinazolin-4-amine] here?
A: 316 to 3160 nM

Q: For Cc1ccc([C@@H](C)Nc2ncnc3c(OC4CCOCC4)cc(-c4ccn(C)n4)cc23)nn1 [Example 32, (R)-6-(1-methyl-1H-pyrazol-3-yl)-N-(1-(6-methylpyridazin-3-yl)ethyl)-8-((tetrahydro-2H-pyran-4-yl)oxy)quinazolin-4-amine], which IC50 is on record?
A: 316 to 3160 nM

Q: With Cc1ccc([C@@H](C)Nc2ncnc3c(OC4CCOCC4)cc(-c4ncc(C)s4)cc23)nn1 [Example 33] as the compound, how does the IC50 read?
A: < 316 nM

Q: For Cc1cnc(-c2cc(OCC3(O)CCOCC3)c3ncnc(NC(C)c4ccc(C)nn4)c3c2)nc1 (stereo not shown) [Example 34, 4-[[4-[1-(6-methylpyridazin-3-yl)ethylamino]-6-(5-methylpyrimidin-2-yl)quinazolin-8-yl]oxymethyl]tetrahydropyran-4-ol], which IC50 is on record?
A: 316 to 3160 nM

Q: COCCOc1cc(-c2ncc(C)s2)cc2c(NCc3ccc(C)nn3)ncnc12 [Example 35, 8-(2-methoxyethoxy)-N-((6-methylpyridazin-3-yl)methyl)-6-(5-methylthiazol-2-yl)quinazolin-4-amine] was tested. Which IC50 did it give?
A: < 316 nM

Q: Cc1ccc(CNc2ncnc3c(OCCO)cc(-c4ncc(C)s4)cc23)nn1 [Example 36, 2-((4-(((6-methylpyridazin-3-yl)methyl)amino)-6-(5-methylthiazol-2-yl)quinazolin-8-yl)oxy)ethan-1-ol] was tested. Which IC50 did it give?
A: < 316 nM

Q: For Cc1ccc(CNc2ncnc3c(OCC4COC4)cc(-c4ncc(C)s4)cc23)nn1 [Example 37, N-((6-methylpyridazin-3-yl)methyl)-6-(5-methylthiazol-2-yl)-8-(oxetan-3-ylmethoxy)quinazolin-4-amine], which IC50 is on record?
A: < 316 nM

Q: How did the IC50 turn out when Cc1ccc(CNc2ncnc3c(OC4CCOCC4)cc(-c4ncc(C)s4)cc23)nn1 [Example 38, N-[(6-methylpyridazin-3-yl)methyl]-6-(5-methylthiazol-2-yl)-8-tetrahydropyran-4-yloxy-quinazolin-4-amine] was run?
A: 316 to 3160 nM

Q: How did the IC50 turn out when C[C@@H](Nc1ncnc2c(OC3CCNC4(CCC4)C3)cc(-c3ccc(F)cc3)cc12)c1cnc(C(F)(F)F)nc1 (stereo partly drawn) [Example 39, 8-(5-azaspiro[3.5]nonan-8-yloxy)-6-(4-fluorophenyl)-N-[(1R)-1-[2-(trifluoromethyl)pyrimidin-5-yl]ethyl]quinazolin-4-amine] was run?
A: < 316 nM

Q: Which IC50 does the source give for C[C@@H](Nc1ncnc2c(OC3CC4CC3CN4)cc(-c3ccc(F)cc3)cc12)c1cnc(C(F)(F)F)nc1 (stereo partly drawn) [Example 41, 8-((2-azabicyclo[2.2.1]heptan-5-yl)oxy)-6-(4-fluorophenyl)-N-((R)-1-(2-(trifluoromethyl)pyrimidin-5-yl)ethyl)quinazolin-4-amine] here?
A: < 316 nM

Q: How did the IC50 turn out when Cc1cnc(-c2cc(OCC(=O)O)c3ncnc(NCc4ccc(C)nn4)c3c2)nc1 [Example 55, 2-((4-(((6-methylpyridazin-3-yl)methyl)amino)-6-(5-methylpyrimidin-2-yl)quinazolin-8-yl)oxy)acetic acid dihydrochloride] was run?
A: < 316 nM

Q: For CN1CCC(CNc2ncnc3c(OCC(=O)O)cc(-c4ccc(F)cc4)cc23)CC1 [Example 57, 2-((6-(4-fluorophenyl)-4-(((1-methylpiperidin-4-yl)methyl)amino)quinazolin-8-yl)oxy)acetic Acid Hydrochloride], which IC50 is on record?
A: 316 to 3160 nM

Q: How did the IC50 turn out when Cc1ccc(CNc2ncnc3c(OC4COC4)cc(-c4ccc(F)cc4)cc23)nn1 [Example 74, 6-(4-fluorophenyl)-N-((6-methylpyridazin-3-yl)methyl)-8-(oxetan-3-yloxy)quinazolin-4-amine] was run?
A: 3160 to 31600 nM

Q: With Cc1cnc(-c2cc(OC3CCOCC3)c3ncnc(NC(C)c4nnc(C)s4)c3c2)s1 (stereo not shown) [Example 81, N-[1-(5-methyl-1,3,4-thiadiazol-2-yl)ethyl]-6-(5-methylthiazol-2-yl)-8-tetrahydropyran-4-yloxy-quinazolin-4-amine] as the compound, how does the IC50 read?
A: 316 to 3160 nM

Q: Which IC50 does the source give for Cc1nc([C@@H](C)Nc2ncnc3c(OC4CCOCC4)cc(-c4ccc(F)cn4)cc23)no1 [Example 82, 6-(5-fluoro-2-pyridyl)-N-[(1R)-1-(5-methyl-1,2,4-oxadiazol-3-yl)ethyl]-8-tetrahydropyran-4-yloxy-quinazolin-4-amine] here?
A: < 316 nM

Q: For Cc1ccc(CNc2ncnc3c(-c4ccnn4C)cc(-c4ccc(F)cc4)cc23)nn1 [Example 94, 6-(4-fluorophenyl)-8-(2-methylpyrazol-3-yl)-N-[(6-methylpyridazin-3-yl)methyl]quinazolin-4-amine], which IC50 is on record?
A: 316 to 3160 nM

Q: With COc1cc(-n2ccc(Cl)n2)cc2c(NC(C)c3cnc(C(F)(F)F)nc3)ncnc12 (stereo not shown) [Example 95, 6-(3-Chloro-1H-pyrazol-1-yl)-8-methoxy-N-(1-(2-(trifluoromethyl)pyrimidin-5-yl)ethyl)quinazolin-4-amine] as the compound, how does the IC50 read?
A: < 316 nM

Q: COc1cc(-n2ccc(Cl)n2)cc2c(NC(C)c3ccc(C)nn3)ncnc12 (stereo not shown) [Example 96, 6-(3-chloro-1H-pyrazol-1-yl)-8-methoxy-N-(1-(6-methylpyridazin-3-yl)ethyl)quinazolin-4-amine] was tested. Which IC50 did it give?
A: 316 to 3160 nM

Q: Which IC50 does the source give for COc1cc(-n2cc(F)cn2)cc2c(N[C@H](C)c3cnc(C(F)(F)F)nc3)ncnc12 [Example 97, (R)-6-(4-fluoro-1H-pyrazol-1-yl)-8-methoxy-N-(1-(2-(trifluoromethyl)pyrimidin-5-yl)ethyl)quinazolin-4-amine] here?
A: 316 to 3160 nM

Q: How did the IC50 turn out when COc1cc(-n2cc(F)cn2)cc2c(N[C@H](C)c3ccc(C)nn3)ncnc12 [Example 98, (R)-6-(4-fluoro-1H-pyrazol-1-yl)-8-methoxy-N-(1-(6-methylpyridazin-3-yl)ethyl)quinazolin-4-amine] was run?
A: 316 to 3160 nM

Q: For COc1cc(-n2cc(Cl)cn2)cc2c(N[C@H](C)c3ccc(C)nn3)ncnc12 [Example 100, (R)-6-(4-chloro-1H-pyrazol-1-yl)-8-methoxy-N-(1-(6-methylpyridazin-3-yl)ethyl)quinazolin-4-amine], which IC50 is on record?
A: < 316 nM

Q: With COc1cc(-n2ccc(F)n2)cc2c(N[C@H](C)c3ccc(C)nn3)ncnc12 [Example 101, (R)-6-(3-fluoro-1H-pyrazol-1-yl)-8-methoxy-N-(1-(6-methylpyridazin-3-yl)ethyl)quinazolin-4-amine] as the compound, how does the IC50 read?
A: 316 to 3160 nM
